Patent US12478620B2, “Cyano-substituted cyclic hydrazine derivative and application thereof” (E-nitiate Biopharmaceuticals (Hangzhou) Co., Ltd, priority 2019, dated 2025)

Tests used:
JAK1 = JAK1 (Homo sapiens, UniProt P23458); assay: JAK kinase inhibitor activity detection (ULight-JAK-1 substrate, Eu-labeled anti-phosphotyrosine antibody), JAK1; format: biochemical; details: JAK1 10 nM, substrate 50 nM, ATP 40 uM, 2 h room temperature
Description: (§1) Activity Detection of Small Molecule Inhibitors of JAK Kinase
(§2) • (1) kinase reaction buffer • Prepare the kinase reaction buffer with the following components: 50 mM HEPES, pH 7.5, 1 mM EGTA, 10 mM MgCl2, 2 mM DTT, 0.01% Tween20 • (2) 1× detection buffer • To prepare detection buffer, dilute 10× detection buffer to 1× with deionized water 9:1 • (3) 4× kinase solution • Dilute JAK to 4× final concentration by JAK reaction buffer (JAK1: 40 nM, JAK2: 0.5 nM) • (4) 4× substrate solution • Dilute ULight™-JAK-1 (Tyr1023) substrate to 200 nM by kinase reaction buffer (final concentration: 50 nM) • (5) 4×ATP solution • Dilute ATP to 4× final concentration by kinase reaction buffer (JAK1: 160 μM, JAK2: 40 μM) • (6) 4× compound testing solution • DMSO dissolves the testing compound into 10 mM stock solution, then prepared to the desired concentration with 3-fold serial dilution, and 10 concentration points were set for each compound. Besides, the final concentration range of the testing compound is: 10 μM-0.5 nM • (7) 4× enzyme reaction termination liquid • 1× test buffer dissolves EDTA to 40 mM (EDTA final concentration: 10 mM) • (8) 4× antibody detection solution • 1× test buffer dilutes Eu labeled antibody (anti-phosphotyrosine (PT66)) to 8 nM (antibody final concentration: 2 nM) 2. Experimental Process • (1) Successively add 2.5 μL 4×JAK solution, and 2.5 μL of diluted 4× test compound solution in different concentrations to the 384 microporous plate, and set 2 multi-wells for each concentration. Meanwhile, set enzyme solution blank control group and negative control group (DMSO group). • (2) Shake the 384-hole plate, mix enzymes and compounds, centrifuge at 1000 rpm for 1 minute, and incubate at room temperature for 60 minutes • (3) Add 2.5 μL of 4× substrate solution to a 384-hole plate and centrifuge at 1000 rpm for 1 min • (4) Add 2.5 μL of 4×ATP solution to the 384 multi-well plate and centrifuge at 1000 rpm for 1 minute to initiate the enzyme reaction. • (5) JAK1 reacts at room temperature for 2 h, and JAK2 react at room temperature for 1 h. • (6) The final concentrations of each group of the JAK1 reaction are: JAK1: 10 nM, substrate: 50 nM, ATP: 40 uM, and the final concentration range of the test compound is: 10 μM-0.5 nM • The final concentrations of each group of the JAK2 reaction are: JAK2: 0.125 nM, substrate: 50 nM, ATP: 10 μM, and the final concentration range of test compounds is: 10 μM-0.5 nM • (7) After the enzyme reaction, add 5 μL of 4× enzyme reaction stop solution to each well of the 384-well plate with 1000 rpm, centrifuge for 1 minute, and incubate at room temperature for 5 min. • (8) Add 5 μL of 4× detection antibody solution to each well of a 384-well plate (final concentration of detection antibody is 2 nM) with 1000 rpm, centrifuge for 1 minute, and incubate at room temperature for 1 h. • (10) After antibody incubation, measure the signal value of each well on an Envision plate reader 3. Data Analysis • (1) Taking the enzyme solution blank control group as 100% inhibition rate and the negative control group (DMSO group) as 0% inhibition rate, calculate the percentage inhibition rate corresponding to each concentration of the tested compounds • (2) In GraphPad Prism software, nonlinear regression analysis is performed on the concentration logarithm of the test compound and the corresponding percentage inhibition rate to obtain the half-inhibitory concentration (IC50) of the test compound.

JAK2 = JAK2 (Homo sapiens, UniProt O60674); assay: JAK kinase inhibitor activity detection (ULight-JAK-1 substrate, Eu-labeled anti-phosphotyrosine antibody), JAK2; format: biochemical; details: JAK2 0.125 nM, substrate 50 nM, ATP 10 μM, 1 h room temperature
Description: as §1, §2

Sequence of JAK1 (P23458 whole entry, species assumed): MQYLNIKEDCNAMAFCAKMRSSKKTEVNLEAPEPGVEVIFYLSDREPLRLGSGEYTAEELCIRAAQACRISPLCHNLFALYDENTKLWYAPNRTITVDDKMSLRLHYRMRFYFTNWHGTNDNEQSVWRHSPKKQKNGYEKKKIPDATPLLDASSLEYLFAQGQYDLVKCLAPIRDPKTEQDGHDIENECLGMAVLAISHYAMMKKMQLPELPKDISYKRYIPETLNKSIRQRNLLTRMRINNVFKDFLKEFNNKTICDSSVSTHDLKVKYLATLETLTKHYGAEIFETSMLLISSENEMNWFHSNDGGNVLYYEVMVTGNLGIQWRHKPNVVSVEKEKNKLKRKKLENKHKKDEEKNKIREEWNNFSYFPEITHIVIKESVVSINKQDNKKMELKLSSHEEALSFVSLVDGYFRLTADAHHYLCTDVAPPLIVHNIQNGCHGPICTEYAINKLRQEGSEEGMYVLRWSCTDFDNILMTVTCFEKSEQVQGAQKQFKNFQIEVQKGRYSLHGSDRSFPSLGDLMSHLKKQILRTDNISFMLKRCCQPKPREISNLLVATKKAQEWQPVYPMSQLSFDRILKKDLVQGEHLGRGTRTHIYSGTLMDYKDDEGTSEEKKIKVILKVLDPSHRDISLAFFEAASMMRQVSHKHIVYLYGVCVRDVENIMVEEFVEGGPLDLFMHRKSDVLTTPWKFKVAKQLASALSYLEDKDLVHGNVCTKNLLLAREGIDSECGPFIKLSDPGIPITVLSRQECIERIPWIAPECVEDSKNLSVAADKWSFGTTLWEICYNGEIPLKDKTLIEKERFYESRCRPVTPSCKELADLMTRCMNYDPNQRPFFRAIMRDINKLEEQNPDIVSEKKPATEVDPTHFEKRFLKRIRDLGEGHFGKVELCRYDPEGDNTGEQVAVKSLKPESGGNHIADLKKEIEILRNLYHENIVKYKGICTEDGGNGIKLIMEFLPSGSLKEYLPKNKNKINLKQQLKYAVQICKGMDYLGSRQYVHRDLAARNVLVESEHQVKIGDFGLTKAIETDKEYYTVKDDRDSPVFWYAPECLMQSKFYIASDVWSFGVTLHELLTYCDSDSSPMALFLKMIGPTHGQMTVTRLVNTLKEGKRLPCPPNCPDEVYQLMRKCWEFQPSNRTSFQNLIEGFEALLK
Sequence of JAK2 (O60674 whole entry, species assumed): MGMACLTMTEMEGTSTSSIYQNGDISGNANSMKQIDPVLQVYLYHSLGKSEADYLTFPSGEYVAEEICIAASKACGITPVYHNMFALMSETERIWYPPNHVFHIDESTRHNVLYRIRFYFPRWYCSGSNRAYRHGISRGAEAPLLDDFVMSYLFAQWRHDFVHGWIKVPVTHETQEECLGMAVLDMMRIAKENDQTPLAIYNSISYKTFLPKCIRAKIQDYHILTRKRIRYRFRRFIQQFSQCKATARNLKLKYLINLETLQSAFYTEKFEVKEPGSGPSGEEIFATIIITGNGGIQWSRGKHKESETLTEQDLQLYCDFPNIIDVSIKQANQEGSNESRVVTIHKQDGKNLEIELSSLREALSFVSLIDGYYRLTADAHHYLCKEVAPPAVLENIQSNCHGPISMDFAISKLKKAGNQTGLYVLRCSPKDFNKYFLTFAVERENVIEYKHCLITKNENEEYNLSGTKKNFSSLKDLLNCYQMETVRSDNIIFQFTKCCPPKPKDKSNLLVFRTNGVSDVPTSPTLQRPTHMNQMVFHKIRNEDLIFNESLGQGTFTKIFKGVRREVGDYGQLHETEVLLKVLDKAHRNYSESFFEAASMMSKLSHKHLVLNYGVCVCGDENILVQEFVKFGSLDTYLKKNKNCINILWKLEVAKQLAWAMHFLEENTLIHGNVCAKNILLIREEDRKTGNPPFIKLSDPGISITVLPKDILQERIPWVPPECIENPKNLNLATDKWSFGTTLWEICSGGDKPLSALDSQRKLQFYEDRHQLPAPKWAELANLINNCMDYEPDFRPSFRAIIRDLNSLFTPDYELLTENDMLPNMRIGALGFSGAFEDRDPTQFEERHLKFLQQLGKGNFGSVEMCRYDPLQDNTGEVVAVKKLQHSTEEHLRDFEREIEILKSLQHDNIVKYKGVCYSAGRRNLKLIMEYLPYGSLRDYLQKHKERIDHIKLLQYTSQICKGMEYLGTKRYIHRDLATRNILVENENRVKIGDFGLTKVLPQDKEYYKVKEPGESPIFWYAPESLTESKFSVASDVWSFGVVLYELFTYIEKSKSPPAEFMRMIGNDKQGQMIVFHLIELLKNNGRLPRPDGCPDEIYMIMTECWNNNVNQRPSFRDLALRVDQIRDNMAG

Structure (SMILES)	IC50 (JAK1)	IC50 (JAK2)
CCC1CN(C(=O)CC#N)CN1n1cnc2cnc3[nH]ccc3c21 (centres unmarked) [Example 28]	3.5 nM	13.1 nM
CCC1CN(CCC#N)CN1n1cnc2cnc3[nH]ccc3c21 (centres unmarked) [Example 29, 3-(4-ethyl-3-(imidazo[4,5-d]pyrrolo[2,3-b]pyridine-1(6H)-yl)imidazolidine-1-yl)propionitrile]	13.9 nM	27.5 nM
N#CCC(=O)N1CCN(n2cnc3cnc4[nH]ccc4c32)C1 [Example 31, 3-(3-(imidazo[4,5-d]pyrrolo[2,3-b]pyridine-1(6H)-yl)imidazoline-1-yl)-3-oxopropionitrile]	6.9 nM	71.8 nM
CC1(CC#N)CCN(n2cnc3cnc4[nH]ccc4c32)CC1 [Example 17, 2-(1-(imidazo[4,5-d]pyrrolo[2,3-b]pyridine-1(6H)-yl)-4-methylpiperidine-4-yl)acetonitrile]	2 nM	1.2 nM
N#CC1CC12CCN(n1cnc3cnc4[nH]ccc4c31)CC2 (centres unmarked) [Example 12, 6-(imidazo[4,5-d]pyrrolo[2,3-b]pyridine-1(6H)-yl)-6-azaspiro[2.5]octane-1-carbonitrile]	1.77 nM	3.28 nM
CC[C@@H]1C[C@H](CC#N)CN1n1cnc2cnc3[nH]ccc3c21 [Example 36-2, 2-((3R,5R)-5-ethyl-1-(imidazo[4,5-d]pyrrolo[2,3-b]pyridine-1(6H)-yl)pyrrolidin-3-yl) acetonitrile]	43.6 nM	127 nM

The next molecules have a lower IC50 (JAK1) than those just listed; values first:

IC50 (JAK1)	IC50 (JAK2)	Structure (SMILES)
0.47 nM	0.95 nM	CCc1nc2cnc3[nH]ccc3c2n1N1CCC(CC#N)CC1 [Example 4, 2-(1-(ethylimidazo[4,5-d]pyrrolo[2,3-b]pyridine-1(6H)-yl)piperidin-4-yl)acetonitrile]
0.66 nM	3.89 nM	N#CCC1CCN(n2c(CCO)nc3cnc4[nH]ccc4c32)CC1 [Example 6, 2-(1-(2-(2-hydroxyethyl)imidazo[4,5-d]pyrrolo[2,3-b]pyridine-1(6H)-yl)piperidin-4-yl)acetonitrile]
1.5 nM	5 nM	C[C@H](O)c1nc2cnc3[nH]ccc3c2n1N1CCC(CC#N)CC1 [Example 8, (S)-2-(1-(2-(1-hydroxyethyl)imidazo[4,5-d]pyrrolo[2,3-b]pyridine-1(6H)-yl)piperidin-4-yl)acetonitrile]
0.57 nM	2.98 nM	N#CCCC1CCN(n2cnc3cnc4[nH]ccc4c32)CC1 [Example 11]
